The source of these data is patent US6340573B1, “Chromogenic substrates for detecting bacterial hydrolases” (Bio Merieux, priority 1998, dated 2002).

This assay deals with Alanine-aminopeptidase. Nature of the assay: GRAM identification with impregnated bottle brush. In kind it is cell-based, Gram-negative bacteria. Particulars: for coloration intensity: semiquantitative scale up to 4. An excerpt:
According to a representative example, the GRAM identification process uses a substrate based on aminobenzene or a derivative thereof, such as DiMethyl-paraPhenyleneDiamine (DMpPD). In the example which follows, the substrate consists of Alanine-Dimethyl-paraPhenyleneDiamine (AlaDMpPD).
It functions as follows. Enzymatic hydrolysis causes release of the DMpPD group. Next, the DMPD binds with α-naphthol (or a derivative) by oxidative coupling facilitated by an oxidizing agent, potassium ferricyanide (K3Fe(CN)6). This then causes formation of a violet-gray complex.
Another device has been defined, which is even more specific in Gram identification and which can also be used with blood agars of Columbia type. It consists of:
a medium consisting of a blood agar of Columbia type (with or without AlaDMpPD), and
a reaction mixture which impregnates a bottle brush and which is constituted on the basis of α-naphthol, potassium ferricyanide and AlaDMpPD and then dried.
This reaction mixture contained in the bottle brush was further improved by adding a step of drying the bottle brushes, which facilitates their subsequent manipulation.
The exact composition is as follows:
for the agar, presence or absence of AlaDMpPD at 0.075 gram per liter (g/l), and
α-naphthol from 0.01 to 5 g/l, preferably from 0.1 to 1 g/l, and for example 0.5 g/l,
potassium ferricyanide from 0.01 to 5 g/l, preferably from 0.1 to 1 g/l, and for example 0.5 g/l, and
AlaDMpPD from 0.01 to 5 g/l, preferably from 0.1 to 1 g/l, and for example 0.35 g/l.
The results obtained in terms of sensitivity and specificity are thus the best obtained. In this case, the detection of the reaction is not instantaneous. It takes 15 to 30 seconds (s) to observe the appearance of any coloration, this being the time required for hydrolysis of the substrate by the bacterial aminopeptidase. […]

Bounds are passed on as bounds.

Take “Alanine-Dimethyl-paraPhenyleneDiamine [AlaDMpPD]”: the coloration intensity entry is on record as “greater than 2” (Gram-negative bacteria except Pseudomonas) and “less than 1” (Gram-positive bacteria or false-positives except S. pyogenes). The detection time (most Gram-positive bacteria or false-positives, apart from S. pyogenes) was above 10 s.
